Source: patent publication US10501435B2, “Substituted quinazoline compounds and uses thereof for modulating glucocerebrosidase activity” (Northwestern University, priority 2015, dated 2019)

Target: wild-type GCase (Homo sapiens (Human), UniProt P04062)
Assay: GCase enzyme activity assay (4MU-β-Glc substrate, no taurocholate)
Format: biochemical
Conditions: not given
Experimental: In previous studies, high concentrations of taurocholate (4-10 mM) were used to improve the signal in GCase enzyme activity assays^16,27,28. […] Here we describe our modifications of the substituents on the quinazoline ring.
4-Methylumbelliferyl β-D-glucopyranoside (4MU-β-Glc), 4-methylumbelliferyl α-D-glucopyranoside, 4-methylumbelliferyl α-D-galactopyranoside, and buffer components were purchased from Sigma-Aldrich (St. Louis, Mo.). The recombinant wild-type GCase enzyme velaglucerase alfa (Vpriv®, Shire Human Genetic Therapies, Inc.), acid α-glucosidase enzyme alglucosidase alfa (Lumizyme®, Genzyme Corporation), α-galactosidase A enzyme agalsidase beta (Fabrazyme®, Genzyme Corporation) were used in activity assays. […] A solution of 1 M sodium hydroxide and 1 M glycine (pH 10) was used as the stop solution for all three enzyme activity assays.
GCase Enzyme Activity Assay. The compounds in DMSO solution (0.5 μL/well) were transferred to a black 96-well plate (the final titration started from 100 μM, a 12 or 24-point 2-fold dilution series). […] After 5 min of incubation at room temperature, the enzyme reaction was initiated by the addition of blue substrate (4MU-β-Glc) (33 μL/well). The final concentration of the blue substrate was 1.5 mM. The blue substrate reaction was terminated by the addition of 33 μL/well stop solution (1 M NaOH and 1 M glycine mixture, pH 10) after 30 min of incubation at 37° C. […] The selected compounds were further assayed under pH 5.0 and pH 7.0 to evaluate their selectivity under various pH conditions.

Chain of wild-type GCase (P04062 40-536): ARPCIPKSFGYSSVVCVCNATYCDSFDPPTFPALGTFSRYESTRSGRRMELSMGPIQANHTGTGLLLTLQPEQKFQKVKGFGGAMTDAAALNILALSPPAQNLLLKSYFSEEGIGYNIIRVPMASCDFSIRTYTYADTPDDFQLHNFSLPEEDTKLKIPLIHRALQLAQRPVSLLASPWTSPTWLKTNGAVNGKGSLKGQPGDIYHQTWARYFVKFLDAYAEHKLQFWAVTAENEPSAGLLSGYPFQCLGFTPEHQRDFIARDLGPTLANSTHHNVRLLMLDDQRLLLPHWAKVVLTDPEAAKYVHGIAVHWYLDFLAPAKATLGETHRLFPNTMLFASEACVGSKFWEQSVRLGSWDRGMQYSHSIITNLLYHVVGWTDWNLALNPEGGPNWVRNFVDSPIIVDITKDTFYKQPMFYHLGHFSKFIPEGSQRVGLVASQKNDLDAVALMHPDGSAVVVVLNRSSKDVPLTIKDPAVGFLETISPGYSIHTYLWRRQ

Row | Structure (SMILES) | inhibitory activity against GCase (in words)
1 | c1cncc(-c2nc(NC3CCCc4ccccc43)c3ccccc3n2)c1 (centres unmarked) [Compound 9d] | low micromolar range
2 | c1cncc(-c2nc(NC3CCc4ccccc43)c3ccccc3n2)c1 (centres unmarked) [Compound 9e] | low micromolar range

Same assay, conditions: Table 4, pH 5.9, mean ± SD, triplicate

Row | IC50 [µM] | Structure (SMILES)
3 | 0.035 ± 0.003 | c1cncc(-c2nc(NC3COc4ccccc4C3)c3ccccc3n2)c1 (centres unmarked) [Compound 9f]

Target: Glucocerebrosidase (Homo sapiens (Human), UniProt P04062)
Sequence (P04062 40-536): as above
Assay: Glucocerebrosidase activity assay with blue substrate (4MU-Glc)
Format: biochemical
Conditions: cells marked (act)
Experimental: The compounds in DMSO solution 0.5 μL/well were transferred to a black 96-well plate. The final titration was 24 nM to 50 μM, 12 concentrations, 2 times dilution. […] After 5 min of incubation at room temperature, the enzyme reaction was initiated by the addition of 33 μL/well blue substrate. Final concentrations of the blue substrate (4MU-Glc) was 1.5 mM. The blue substrate reaction was terminated by the addition of 33 μL/well stop solution (1 M NaOH and 1 M glycine mixture, pH 10) after 30 min of incubation at 37° C. The fluorescence was then measured in the Biotek Synergy H1 multi-mode plate reader with Ex=365 nm and Em=440 nm.
Additional compounds were prepared and tested according to the procedures provided in the examples above.
Additional substituted quinazoline compounds were prepared and tested according to the procedures provided in the examples above.

Row | IC50 or AC50 (μM): AC50 (act) | Structure (SMILES)
4 | Weak (act) | Nc1nc(-c2cccnc2)nc2ccccc12 [compound 35]
5 | Weak (act) | [N-]=[N+]=Nc1c(F)c(F)c(CNc2nc(-c3cccnc3)nc3ccccc23)c(F)c1F [compound 37]
6 | Weak (act) | CN1CCN(c2ccc(C(=O)N3CCN(c4nc(-c5cccnc5)nc5ccccc45)CC3)cc2)CC1 [compound 38]
7 | Weak (act) | c1ccc(Nc2nc(-c3cccnc3)nc3ccccc23)cc1 [compound 50]
8 | Weak (act) | CC(C)(C)Nc1nc(-c2cccnc2)nc2ccccc12 [compound 54]
9 | Weak (act) | c1ccc(C2CCCN(c3nc(-c4cccnc4)nc4ccccc34)C2)cc1 (centres unmarked) [compound 82]

Same assay, conditions: cells marked (act); read-out: IC50 or AC50 (μM): AC50 (act)

Row | Structure (SMILES) | AC50 [µM]
10 | CN(CC1COc2ccccc2O1)c1nc(-c2cccnc2)nc2ccccc12 (centres unmarked) [compound 3] | 1.78
11 | CN(Cc1ccccn1)c1nc(-c2cccnc2)nc2ccccc12 [compound 5] | 35.5
12 | CN(CC1COCCO1)c1nc(-c2cccnc2)nc2ccccc12 (centres unmarked) [compound 6] | 11.2
13 | CN(Cc1cccnc1)c1nc(-c2cccnc2)nc2ccccc12 [compound 7] | 12.6
14 | CN(Cc1ccncc1)c1nc(-c2cccnc2)nc2ccccc12 [compound 8] | 15.8
15 | CN(Cc1cnccn1)c1nc(-c2cccnc2)nc2ccccc12 [compound 9] | 14.1
16 | CN(Cc1cnc2ccccc2n1)c1nc(-c2cccnc2)nc2ccccc12 [compound 10] | 0.89
17 | CN(Cc1ccc2c(c1)OCO2)c1nc(-c2cccnc2)nc2ccccc12 [compound 11] | 1
18 | CN1Cc2ccc(CN(C)c3nc(-c4cccnc4)nc4ccccc34)cc2C1 [compound 13] | 44.7
19 | CN(Cc1nc2ccccc2s1)c1nc(-c2cccnc2)nc2ccccc12 [compound 14] | 1.12
20 | COc1ccccc1CN(C)c1nc(-c2cccnc2)nc2ccccc12 [compound 16] | 3.13
21 | CN(Cc1ccc2ccccc2c1)c1nc(-c2cccnc2)nc2ccccc12 [compound 17] | 1.56
22 | CN(Cc1nc2ccccc2o1)c1nc(-c2cccnc2)nc2ccccc12 [compound 18] | 11.2
23 | CN(Cc1ccc2c(c1)OCCO2)c1nc(-c2cccnc2)nc2ccccc12 [compound 19] | 3.98
24 | CN(Cc1ccc2nsnc2c1)c1nc(-c2cccnc2)nc2ccccc12 [compound 21] | 3.55
25 | CC(C)(C)OC(=O)N1CCN(c2nc(-c3cccnc3)nc3ccccc23)CC1 [compound 22] | 10
26 | CN(Cc1scc2c1OCCO2)c1nc(-c2cccnc2)nc2ccccc12 [compound 24] | 2
27 | CC(C)Cc1noc(CN(C)c2nc(-c3cccnc3)nc3ccccc23)n1 [compound 25] | 35.5
28 | Cc1ccc(S(=O)(=O)N2CCN(c3nc(-c4cccnc4)nc4ccccc34)CC2)cc1 [compound 26] | 1
29 | c1cncc(-c2nc(NCCC3COc4ccccc4O3)c3ccccc3n2)c1 (centres unmarked) [compound 27] | 0.6
30 | CCN(CC1COc2ccccc2O1)c1nc(-c2cccnc2)nc2ccccc12 (centres unmarked) [compound 28] | 2.82
31 | c1cncc(-c2nc(N3CCN(CC4COc5ccccc5O4)CC3)c3ccccc3n2)c1 (centres unmarked) [compound 30] | 3.13
32 | CN(Cc1ccc(-n2ccnc2)cc1)c1nc(-c2cccnc2)nc2ccccc12 [compound 31] | 19.9
33 | CN(CCC1COc2ccccc2O1)c1nc(-c2cccnc2)nc2ccccc12 (centres unmarked) [compound 32] | 3.16
34 | CN1CCN(c2ccc(CNc3nc(-c4cccnc4)nc4ccccc34)cc2)CC1 [compound 36] | 39.8
35 | CN(c1nc(-c2cccnc2)nc2ccccc12)C1CCCCC1 [compound 56] | 5.01
36 | CN(CCc1cccc(F)c1)c1nc(-c2cccnc2)nc2ccccc12 [compound 59] | 4.47
37 | c1cncc(-c2nc(N3C4CCC3CC4)c3ccccc3n2)c1 [compound 64] | 2.24

More lines, now with the values ahead:

Row | AC50 [µM] | Structure (SMILES)
38 | 2 | Nc1ccc(CCNc2nc(-c3cccnc3)nc3ccccc23)cc1 [compound 71]
39 | 2.24 | c1ccc(CC2CCCCN2c2nc(-c3cccnc3)nc3ccccc23)cc1 (centres unmarked) [compound 83]
40 | 2.51 | c1ccc(CC2CCCN(c3nc(-c4cccnc4)nc4ccccc34)C2)cc1 (centres unmarked) [compound 87]

Same assay, conditions: cells marked activator

Row | Activity AC50 or IC50 (μM unless nM indicated): AC50, activator | Structure (SMILES)
41 | Weak activator | CN(c1nc(-c2cccnc2)nc2ccccc12)C1Cc2ccc(C#CCCCCCCCCC(=O)ON3C(=O)CCC3=O)cc2C1 (centres unmarked) [compound 105]
42 | Weak activator | COC(=O)CCCCCCCCC#Cc1ccc(OCCN(C)c2nc(-c3cccnc3)nc3ccccc23)cc1 [compound 109]
43 | Weak activator | CN(CCOc1ccc(C#CCOCCOCCNc2nc(-c3cccnc3)nc3ccccc23)cc1)c1nc(-c2cccnc2)nc2ccccc12 [compound 110]
44 | Weak activator | CN(CCCCCCCCCCN(C)c1nc(-c2cccnc2)nc2ccccc12)c1nc(-c2cccnc2)nc2ccccc12 [compound 112]
45 | Weak activator | c1cncc(-c2nc(N3CCCOCC3)c3ccccc3n2)c1 [compound 116]
46 | Weak activator | CN(c1nc(-c2cccnc2)nc2ccccc12)C1CCCCCCC1 [compound 123]
47 | Weak activator | CN(CCOc1ccccc1)c1nc(-c2ccccn2)nc2ccccc12 [compound 143]
48 | activator | CN(CCOc1ccc(C#CCCCCCCCCC(=O)ON2C(=O)CCC2=O)cc1)c1nc(-c2cccnc2)nc2ccccc12 [compound 153]

Same assay, conditions: cells marked activator; read-out: Activity AC50 or IC50 (μM unless nM indicated): AC50, activator

Row | AC50 [µM] | Structure (SMILES)
49 | 0.62 | Cc1ccc(OCCNc2nc(-c3cccnc3)nc3ccccc23)cc1 [compound 90]
50 | 35 | CN(CCOc1ccc(C#CCCCCCCC#Cc2ccc(OCCN(C)c3nc(-c4cccnc4)nc4ccccc34)cc2)cc1)c1nc(-c2cccnc2)nc2ccccc12 [compound 111]
51 | 12.6 | C#CCOCCOCCNc1nc(-c2cccnc2)nc2ccccc12 [compound 113]
52 | 7.94 | c1cncc(-c2nc(N3CCOc4ccccc4C3)c3ccccc3n2)c1 [compound 115]
53 | 7.08 | COC(=O)CCCCCCCCCCc1ccc(OCCN(C)c2nc(-c3cccnc3)nc3ccccc23)cc1 [compound 117]
54 | 22.4 | CN(c1nc(-c2cccnc2)nc2ccccc12)C1CCCC1 [compound 118]
55 | 3.16 | CN(CCCCc1ccccc1)c1nc(-c2cccnc2)nc2ccccc12 [compound 120]
56 | 8.91 | CN(c1nc(-c2cccnc2)nc2ccccc12)C1CCCCCC1 [compound 121]
57 | 5.01 | CN(CCc1ccccc1)c1nc(-c2cccnc2)nc2ccccc12 [compound 122]
58 | 10 | CN(CCOc1ccccc1)c1nc(Cl)nc2ccccc12 [compound 124]
59 | 1.25 | CN(CCOc1ccccc1)c1nc(-c2cncnc2)nc2ccccc12 [compound 127]
60 | 1.25 | CN(CCOc1ccccc1)c1nc(-c2ccccc2F)nc2ccccc12 [compound 128]
61 | 3.98 | CN(CCOc1ccccc1)c1nc(-c2ccncc2)nc2ccccc12 [compound 130]
62 | 31.6 | CN(CCOc1ccccc1)c1nc(-c2ccco2)nc2ccccc12 [compound 133]
63 | 0.65 | CN(CCOc1ccccc1)c1nc(-c2ccoc2)nc2ccccc12 [compound 134]
64 | 22.4 | COc1ccccc1OCCN(C)c1nc(-c2cccnc2)nc2ccccc12 [compound 135]
65 | 3.55 | Cc1ccc(OCCN(C)c2nc(-c3cccnc3)nc3ccccc23)cc1 [compound 136]
66 | 5.01 | CN(CCCOc1ccccc1)c1nc(-c2cccnc2)nc2ccccc12 [compound 137]
67 | 5.62 | CC(CN(C)c1nc(-c2cccnc2)nc2ccccc12)Oc1ccccc1 (centres unmarked) [compound 138]
68 | 5.62 | CC(COc1ccccc1)N(C)c1nc(-c2cccnc2)nc2ccccc12 (centres unmarked) [compound 139]
